{
  "source": "patent US6914045B2",
  "about": "“Glycopeptide antibiotics” (Wyeth Holdings Corporation, priority 2001, dated 2005)",
  "assay_in_all_cases": "in vitro antibacterial evaluation, MIC by broth dilution",
  "assay_type_in_all_cases": "cell-based",
  "key": {"Streptococcus sp.": {"test_system": "Streptococcus sp.", "conditions": "broth dilution, 18 hours at 35° C.; for MIC Streptococcus pneumoniae (ATCC 6301): strain ATCC 6301; for MIC Streptococcus pneumoniae (GC 1894): strain GC 1894; for MIC Streptococcus pyogenes (GC 4563): strain GC 4563; for MIC Streptococcus agalactiae (GC 4564): strain GC 4564; for MIC Streptococcus pneumoniae (GC 4565): strain GC 4565", "in_short": "(§1)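 MIC, the lowest antibiotic concentration preventing growth, was read across 64-0.06 μg/mL with 5×10^5 CFU/mL inoculum. Method followed NCCLS M7-A2 broth dilution using Mueller-Hinton II; Gram-positive strains covered recent methicillin-, penicillin- and/or vancomycin-resistant clinical isolates.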"}, "Enterococcus sp.": {"test_system": "Enterococcus sp.", "conditions": "broth dilution, 18 hours at 35° C.; for MIC Enterococcus faecalis (ATCC 29212): strain ATCC 29212; for MIC Enterococcus faecalis (GC 2242): strain GC 2242; for MIC Enterococcus faecium (GC 2243): strain GC 2243; for MIC Enterococcus faecalis (GC 2691): strain GC 2691; for MIC Enterococcus faecalis (GC 3059): strain GC 3059; for MIC Enterococcus faecalis (GC 4552): strain GC 4552; for MIC Enterococcus faecalis (GC 4553): strain GC 4553; for MIC Enterococcus faecalis (GC 4554): strain GC 4554; for MIC Enterococcus faecium (GC 4556): strain GC 4556; for MIC Enterococcus faecium (GC 4557): strain GC 4557; for MIC Enterococcus avium (GC 4558): strain GC 4558; for MIC Enterococcus faecalis (GC 6189): strain GC 6189", "in_short": "as §1"}, "Staphylococcus sp.": {"test_system": "Staphylococcus sp.", "conditions": "broth dilution, 18 hours at 35° C.; for MIC Staphylococcus aureus (GC 1131): strain GC 1131", "in_short": "as §1"}, "Escherichia coli": {"test_system": "Escherichia coli", "in_short": "as §1"}},
  "data": [
    {"smiles": "CC(c1ccccc1)C1NC(=O)CNC(=O)C(CO)NC(=O)C(C(O)C2CNC(=N)N2C2OC(CO)C(O)C(O)C2O)NC(=O)C(C(O)C2CNC(=N)N2)NC(=O)C(Cc2ccc(OC3OC(CO)C(OC4OC5COC(c6ccc(-c7ccsc7)cc6)OC5C(O)C4O)C(O)C3O)cc2)NC1=O", "note": "(stereo not drawn) [Example 164]", "values": [
      {"measurement": "MIC Streptococcus pneumoniae (ATCC 6301)", "setting": "Streptococcus sp.; inoculum 5×10^5 CFU/mL", "value": "<0.06", "unit": "µg/mL"},
      {"measurement": "MIC Streptococcus pneumoniae (GC 1894)", "setting": "Streptococcus sp.; inoculum 5×10^5 CFU/mL", "value": "<0.06", "unit": "µg/mL"},
      {"measurement": "MIC Streptococcus pyogenes (GC 4563)", "setting": "Streptococcus sp.; inoculum 5×10^5 CFU/mL", "value": 0.12, "unit": "µg/mL"},
      {"measurement": "MIC Streptococcus agalactiae (GC 4564)", "setting": "Streptococcus sp.; inoculum 5×10^5 CFU/mL", "value": 0.12, "unit": "µg/mL"},
      {"measurement": "MIC Streptococcus pneumoniae (GC 4565)", "setting": "Streptococcus sp.; inoculum 5×10^5 CFU/mL", "value": "<0.06", "unit": "µg/mL"},
      {"measurement": "MIC Streptococcus pneumoniae (ATCC 6301)", "setting": "Streptococcus sp.", "value": "<0.06", "unit": "µg/mL"},
      {"measurement": "MIC Streptococcus pneumoniae (GC 1894)", "setting": "Streptococcus sp.", "value": "<0.06", "unit": "µg/mL"},
      {"measurement": "MIC Streptococcus pyogenes (GC 4563)", "setting": "Streptococcus sp.", "value": 0.12, "unit": "µg/mL"},
      {"measurement": "MIC Streptococcus agalactiae (GC 4564)", "setting": "Streptococcus sp.", "value": 0.12, "unit": "µg/mL"},
      {"measurement": "MIC Streptococcus pneumoniae (GC 4565)", "setting": "Streptococcus sp.", "value": "<0.06", "unit": "µg/mL"},
      {"measurement": "MIC Enterococcus faecalis (ATCC 29212)", "setting": "Enterococcus sp.; inoculum 5×10^5 CFU/mL", "value": 8, "unit": "µg/mL"},
      {"measurement": "MIC Enterococcus faecalis (GC 2242)", "setting": "Enterococcus sp.; inoculum 5×10^5 CFU/mL", "value": 4, "unit": "µg/mL"},
      {"measurement": "MIC Enterococcus faecium (GC 2243)", "setting": "Enterococcus sp.; inoculum 5×10^5 CFU/mL", "value": 8, "unit": "µg/mL"},
      {"measurement": "MIC Enterococcus faecalis (GC 2691)", "setting": "Enterococcus sp.; inoculum 5×10^5 CFU/mL", "value": 8, "unit": "µg/mL"},
      {"measurement": "MIC Enterococcus faecalis (GC 3059)", "setting": "Enterococcus sp.; inoculum 5×10^5 CFU/mL", "value": 8, "unit": "µg/mL"},
      {"measurement": "MIC Enterococcus faecalis (GC 4552)", "setting": "Enterococcus sp.; inoculum 5×10^5 CFU/mL", "value": 8, "unit": "µg/mL"},
      {"measurement": "MIC Enterococcus faecalis (GC 4553)", "setting": "Enterococcus sp.; inoculum 5×10^5 CFU/mL", "value": 8, "unit": "µg/mL"},
      {"measurement": "MIC Enterococcus faecalis (GC 4554)", "setting": "Enterococcus sp.; inoculum 5×10^5 CFU/mL", "value": 16, "unit": "µg/mL"},
      {"measurement": "MIC Enterococcus faecium (GC 4556)", "setting": "Enterococcus sp.; inoculum 5×10^5 CFU/mL", "value": 8, "unit": "µg/mL"},
      {"measurement": "MIC Enterococcus faecium (GC 4557)", "setting": "Enterococcus sp.; inoculum 5×10^5 CFU/mL", "value": 4, "unit": "µg/mL"},
      {"measurement": "MIC Enterococcus avium (GC 4558)", "setting": "Enterococcus sp.; inoculum 5×10^5 CFU/mL", "value": 8, "unit": "µg/mL"},
      {"measurement": "MIC Enterococcus faecalis (GC 6189)", "setting": "Enterococcus sp.; inoculum 5×10^5 CFU/mL", "value": 4, "unit": "µg/mL"},
      {"measurement": "MIC Enterococcus faecalis (ATCC 29212)", "setting": "Enterococcus sp.", "value": 8, "unit": "µg/mL"},
      {"measurement": "MIC Enterococcus faecalis (GC 2242)", "setting": "Enterococcus sp.", "value": 4, "unit": "µg/mL"},
      {"measurement": "MIC Enterococcus faecium (GC 2243)", "setting": "Enterococcus sp.", "value": 8, "unit": "µg/mL"},
      {"measurement": "MIC Enterococcus faecalis (GC 2691)", "setting": "Enterococcus sp.", "value": 8, "unit": "µg/mL"},
      {"measurement": "MIC Enterococcus faecalis (GC 3059)", "setting": "Enterococcus sp.", "value": 8, "unit": "µg/mL"},
      {"measurement": "MIC Enterococcus faecalis (GC 4552)", "setting": "Enterococcus sp.", "value": 8, "unit": "µg/mL"},
      {"measurement": "MIC Enterococcus faecalis (GC 4553)", "setting": "Enterococcus sp.", "value": 8, "unit": "µg/mL"},
      {"measurement": "MIC Enterococcus faecalis (GC 4554)", "setting": "Enterococcus sp.", "value": 16, "unit": "µg/mL"},
      {"measurement": "MIC Enterococcus faecium (GC 4556)", "setting": "Enterococcus sp.", "value": 8, "unit": "µg/mL"},
      {"measurement": "MIC Enterococcus faecium (GC 4557)", "setting": "Enterococcus sp.", "value": 4, "unit": "µg/mL"},
      {"measurement": "MIC Enterococcus avium (GC 4558)", "setting": "Enterococcus sp.", "value": 8, "unit": "µg/mL"},
      {"measurement": "MIC Enterococcus faecalis (GC 6189)", "setting": "Enterococcus sp.", "value": 4, "unit": "µg/mL"},
      {"measurement": "MIC Staphylococcus aureus (GC 1131)", "setting": "Staphylococcus sp.; inoculum 5×10^5 CFU/mL", "value": 4, "unit": "µg/mL"},
      {"measurement": "MIC Staphylococcus aureus (ATCC 29213)", "setting": "Staphylococcus sp.; strain ATCC 29213", "value": 8, "unit": "µg/mL"},
      {"measurement": "MIC Staphylococcus aureus (GC 1131)", "setting": "Staphylococcus sp.", "value": 4, "unit": "µg/mL"},
      {"measurement": "MIC Staphylococcus aureus (GC 3051)", "setting": "Staphylococcus sp.; strain GC 3051", "value": 16, "unit": "µg/mL"},
      {"measurement": "MIC Staphylococcus aureus (GC 3053)", "setting": "Staphylococcus sp.; strain GC 3053", "value": 8, "unit": "µg/mL"},
      {"measurement": "MIC Staphylococcus aureus (GC 4541)", "setting": "Staphylococcus sp.; strain GC 4541", "value": 8, "unit": "µg/mL"},
      {"measurement": "MIC Staphylococcus aureus (GC 4542)", "setting": "Staphylococcus sp.; strain GC 4542", "value": 16, "unit": "µg/mL"},
      {"measurement": "MIC Staphylococcus aureus-SMITH (GC 4543)", "setting": "Staphylococcus sp.; strain GC 4543", "value": 4, "unit": "µg/mL"},
      {"measurement": "MIC Staphylococcus aureus (GC 4544)", "setting": "Staphylococcus sp.; strain GC 4544", "value": 8, "unit": "µg/mL"},
      {"measurement": "MIC Staphylococcus aureus (GC 4545)", "setting": "Staphylococcus sp.; strain GC 4545", "value": 4, "unit": "µg/mL"},
      {"measurement": "MIC Staphylococcus haemolyticus (GC 4546)", "setting": "Staphylococcus sp.; strain GC 4546", "value": 4, "unit": "µg/mL"},
      {"measurement": "MIC Coagulase Negative Staphylococcus (GC 4547)", "setting": "Staphylococcus sp.; strain GC 4547", "value": 4, "unit": "µg/mL"},
      {"measurement": "MIC Coagulase Negative Staphylococcus (GC 4548)", "setting": "Staphylococcus sp.; strain GC 4548", "value": 1, "unit": "µg/mL"},
      {"measurement": "MIC Coagulase Negative Staphylococcus (GC 4549)", "setting": "Staphylococcus sp.; strain GC 4549", "value": 0.5, "unit": "µg/mL"},
      {"measurement": "MIC Coagulase Negative Staphylococcus (GC 4551)", "setting": "Staphylococcus sp.; strain GC 4551", "value": 4, "unit": "µg/mL"},
      {"measurement": "MIC Coagulase Negative Staphylococcus (GC 6257)", "setting": "Staphylococcus sp.; strain GC 6257", "value": 1, "unit": "µg/mL"},
      {"measurement": "MIC Staphylococcus aureus-SMITH (GC 4543)", "setting": "Staphylococcus sp.; strain SMITH GC 4543", "value": 4, "unit": "µg/mL"},
      {"measurement": "MIC Escherichia coli (ATCC 25922)", "setting": "Escherichia coli; strain ATCC 25922, 18 hours at 35° C.", "value": ">64", "unit": "µg/mL"},
      {"measurement": "MIC Escherichia coli (GC 4559)", "setting": "Escherichia coli; strain GC 4559, 18 hours at 35° C.", "value": 64, "unit": "µg/mL"},
      {"measurement": "MIC Escherichia coli (GC 4560)", "setting": "Escherichia coli; strain GC 4560, 18 hours at 35° C.", "value": 4, "unit": "µg/mL"}
    ]}
  ]
}
